Our source for the GI50 and TGI values is PubChem BioAssay (NCI).

Several values for one entry are separate records, joined by “and”; a condition that tells them apart may be missing. Identical values can stand only once.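 Cells were grown in 96-well plates and exposed to each compound for 48 hours at five concentrations; endpoints were interpolated linearly between bracketing concentrations, or set to the highest concentration if not reached. GI50: concentration for 50% inhibition of growth. TGI is the concentration that stops growth completely.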 Some results are limits rather than exact numbers.

Test systems include NCI/ADR-RES ovarian; A549 NSCLC; OVCAR-8 ovarian; SR leukemia; RPMI-8226 leukemia; SK-MEL-5 melanoma; HCT-15 colon; EKVX NSCLC; DU-145 prostate; MCF7 breast.
Experiment in all cases: growth of human tumour cells (NCI), 48 h

Consider `Cc1cnc(Nc2ccc(OCCN3CCCC3)cc2)nc1Nc1cccc(S(=O)(=O)NC(C)(C)C)c1`, for which the GI50 in the assay on NCI/ADR-RES ovarian is 7.01 µM and > 7.11 µM; in the assay on A549 NSCLC, 0.335 µM and 1.36 µM; with OVCAR-8 ovarian, 0.666 µM and 2.66 µM; in the assay with SR leukemia, 0.247 µM and 0.502 µM; in the assay on RPMI-8226 leukemia it was 1.23 µM and 1.09 µM; with SK-MEL-5 melanoma, 1.73 µM and 2.1 µM. The GI50 in the assay on HCT-15 colon was 0.33 µM and 1.79 µM; with DU-145 prostate, 0.252 µM and 1.16 µM; with MCF7 breast, 0.143 µM and 0.775 µM. Further, the TGI in the assay on NCI/ADR-RES ovarian was 26.6 µM and > 10 µM; in the assay on A549 NSCLC, 7.29 µM and 6 µM; with OVCAR-8 ovarian, 9.03 µM and > 10 µM; with SR leukemia it was 2.34 µM and 5.11 µM; in the assay with RPMI-8226 leukemia it was 6.51 µM and > 6.61 µM; with SK-MEL-5 melanoma, 5.38 µM and > 5.38 µM. Moreover, the TGI is 11.5 µM and > 10 µM in the assay with HCT-15 colon; 12.9 µM and > 10 µM in the assay on EKVX NSCLC; 13.6 µM and > 10 µM with DU-145 prostate; 9.16 µM and > 10 µM in the assay with MCF7 breast.
As to `CCCCCCNC(=O)Oc1ccc(/C(=C(/C)Cc2ccc(OC)cc2)c2ccc(OCCN(C)C)cc2)cc1`, the GI50 with NCI/ADR-RES ovarian is 5.07 µM; with A549 NSCLC, 5.65 µM; with OVCAR-8 ovarian, 5.32 µM; in the assay on SR leukemia, 1.32 µM; with RPMI-8226 leukemia it was 0.983 µM; in the assay with SK-MEL-5 melanoma, 5.46 µM. Also, the GI50 is 2.02 µM in the assay on HCT-15 colon, 4.91 µM with EKVX NSCLC, 5.55 µM in the assay on DU-145 prostate and 1.29 µM in the assay on MCF7 breast. Moreover, the TGI was 10.7 µM in the assay with NCI/ADR-RES ovarian; 10.8 µM with A549 NSCLC; 11.1 µM with OVCAR-8 ovarian; 6.55 µM with SR leukemia; 2.7 µM in the assay on RPMI-8226 leukemia; 10.2 µM in the assay with SK-MEL-5 melanoma. For the same compound, the TGI was found to be 6.6 µM in the assay with HCT-15 colon, 10.1 µM with EKVX NSCLC, 10.4 µM with DU-145 prostate and 6.98 µM with MCF7 breast.
As for `CC12CC=CCC1CCC1C2CCC2(C)C(c3ccc(=O)oc3)CCC12O` (configuration not stated), the GI50 was 0.0485 µM in the assay on NCI/ADR-RES ovarian; 0.032 µM with A549 NSCLC; 0.0944 µM in the assay on OVCAR-8 ovarian; 0.03 µM with SR leukemia; 0.107 µM in the assay with RPMI-8226 leukemia; 0.0633 µM with SK-MEL-5 melanoma. Further, the GI50 with HCT-15 colon was 0.105 µM; in the assay on EKVX NSCLC, 0.0602 µM; in the assay on DU-145 prostate it was 0.0448 µM; in the assay with MCF7 breast, 0.0794 µM. Further, the TGI with NCI/ADR-RES ovarian came out at 0.276 µM; in the assay on A549 NSCLC, 0.119 µM; with OVCAR-8 ovarian, 0.324 µM; with SR leukemia, 0.123 µM; in the assay on RPMI-8226 leukemia, 0.756 µM; with SK-MEL-5 melanoma it was 0.312 µM. Besides, the TGI came to 0.458 µM in the assay on HCT-15 colon, 0.212 µM in the assay with EKVX NSCLC, 0.168 µM with DU-145 prostate and 0.961 µM with MCF7 breast.
As to `CC(=O)Nc1ccc(/C=C2/NC(=S)N(/C=C3\C(=O)Oc4ccccc4C3=O)C2=O)cc1`, the TGI in the assay on NCI/ADR-RES ovarian, with A549 NSCLC, in the assay on OVCAR-8 ovarian, with SR leukemia, with RPMI-8226 leukemia and with SK-MEL-5 melanoma was above 100 µM each time. For the same compound, the TGI in the assay on HCT-15 colon, with EKVX NSCLC, with DU-145 prostate and with MCF7 breast was above 100 µM in each case.
As to `COc1cc2c3c(c1OC)C1(C=CC(=O)C=C1)CC3NCC2` (configuration not stated), the TGI in the assay on NCI/ADR-RES ovarian, in the assay on A549 NSCLC, with OVCAR-8 ovarian, in the assay with SR leukemia, with RPMI-8226 leukemia and in the assay with SK-MEL-5 melanoma was above 100 µM in each case. The TGI in the assay on HCT-15 colon, with EKVX NSCLC, in the assay with DU-145 prostate and in the assay on MCF7 breast was above 100 µM each time.
Turning to `COC(=O)c1ccc2c(c1)C(=O)c1c-2n(CCCN)c(=O)c2cc(OC)c(OC)cc12`, the GI50 in the assay with NCI/ADR-RES ovarian was 42.6 µM; in the assay with A549 NSCLC, 7.49 µM; in the assay with OVCAR-8 ovarian, 14.5 µM; in the assay on SR leukemia, 1.98 µM; with RPMI-8226 leukemia, 5.77 µM; in the assay with SK-MEL-5 melanoma it was 17.4 µM. The GI50 in the assay on HCT-15 colon was 14.1 µM; in the assay with EKVX NSCLC, 17.7 µM; in the assay with DU-145 prostate, 7.89 µM; with MCF7 breast, 8.79 µM. Further, the TGI in the assay on NCI/ADR-RES ovarian is above 100 µM; in the assay on A549 NSCLC, 27.2 µM; in the assay with OVCAR-8 ovarian it was above 55 µM; in the assay on SR leukemia, 4.39 µM; in the assay with RPMI-8226 leukemia, 12.5 µM; in the assay on SK-MEL-5 melanoma, 34.3 µM. Also, the TGI with HCT-15 colon was found to be 30.5 µM; in the assay with EKVX NSCLC, 38.6 µM; in the assay with DU-145 prostate it was 22.8 µM; in the assay with MCF7 breast, 29.3 µM.
Turning to `CC(=O)c1cc(-c2ccccc2N)n(-c2ccc3c(c2)OCO3)c1C`, the GI50 is 0.211 µM in the assay with NCI/ADR-RES ovarian; 0.313 µM in the assay with A549 NSCLC; 0.156 µM in the assay with OVCAR-8 ovarian; 0.223 µM with SR leukemia; 0.351 µM in the assay with RPMI-8226 leukemia; 0.196 µM in the assay on SK-MEL-5 melanoma. The GI50 with HCT-15 colon is 0.296 µM; in the assay with EKVX NSCLC, 0.392 µM; in the assay with DU-145 prostate it was 0.0408 µM; in the assay on MCF7 breast it was 0.32 µM. In addition, the TGI in the assay with A549 NSCLC was above 100 µM; with OVCAR-8 ovarian, above 100 µM; with SR leukemia, 19.1 µM; in the assay on RPMI-8226 leukemia it was 19.3 µM; in the assay on SK-MEL-5 melanoma, 1.59 µM; with HCT-15 colon, above 100 µM. The TGI in the assay with EKVX NSCLC, in the assay on DU-145 prostate and with MCF7 breast was above 100 µM each time.
`CCC[CH2][Sn]1([CH2]CCC)[O]C(=O)c2ccc(N)cc2[O]1`: the GI50 is 1.76 µM in the assay with NCI/ADR-RES ovarian; 2.62 µM in the assay with A549 NSCLC; 0.909 µM in the assay with OVCAR-8 ovarian; 0.549 µM with SR leukemia; 0.143 µM in the assay with RPMI-8226 leukemia; 0.692 µM with SK-MEL-5 melanoma. The GI50 with HCT-15 colon was 0.46 µM; in the assay on EKVX NSCLC it was 0.285 µM; in the assay with DU-145 prostate, 1.26 µM; in the assay on MCF7 breast, 0.152 µM. In addition, the TGI in the assay on NCI/ADR-RES ovarian stood at 4.12 µM; with A549 NSCLC it was 7.4 µM; in the assay with OVCAR-8 ovarian, 2.49 µM; with RPMI-8226 leukemia, 1.79 µM; in the assay with SK-MEL-5 melanoma, 2.15 µM; with HCT-15 colon, 2.21 µM. Besides, the TGI in the assay with EKVX NSCLC is 2.47 µM; in the assay on DU-145 prostate, 2.52 µM; in the assay on MCF7 breast, 0.738 µM.
